{"source": "patent US6562378B1", "about": "“Nutritional supplement for adolescents” (TSAR Health Private Ltd., priority 2002, dated 2003)", "format_in_all_cases": "in vivo, human", "key": {"[1]": {"tested_on": "Interleukin-2", "test": "Zinc dose response: interleukin-2", "details": "adolescents, median (standard deviation)", "experimental": "(§1) The basic concept underlying the assessment of the most optimum nutrient amounts for a given age group uses the principle of “dose-response curves”. At least four groups of individuals were provided with various amounts of a given nutrient and their immune responses were measured using established and accepted techniques. The amount of a nutrient that gave the best response was considered the optimum amount. Dose response curves were determined for all vitamins and trace elements considered essential for human health, particularly immunity.\n(§2) The ratio of radioactivity in the test samples divided by radioactivity in control samples gave the “stimulation response” shown in FIGS. 1 and 2."}, "[2]": {"tested_on": "Thymulin activity", "test": "Zinc dose response: thymulin activity", "details": "adolescents", "experimental": "as §1, §2"}, "[3]": {"tested_on": "Antibody response", "test": "Zinc dose response: antibody response", "details": "adolescents", "experimental": "as §1, §2"}, "[4]": {"tested_on": "blood lymphocytes", "test": "Zinc dose response: lymphocyte response to PHA (thymidine uptake, stimulation index)", "details": "13-18 year old adolescents, median (standard deviation)", "experimental": "as §1\nData for the dose response curve for zinc in a group of 13-18 year old adolescents is shown in FIGS. 1 and 2, with the total amount of zinc taken is shown for each group. To determine the magnitude of immune response, an aliquot of blood was withdrawn from each subject in the study, blood lymphocytes were separated, washed and mixed with the mitogen phytohemagglutinin (PHA) in previously determined optimum amount. The optimum amount of PHA used in the experiments was predetermined by a set of dose response curves using lymphocytes of a healthy donor and four different concentrations of PHA. After culture in a sterile environment for 72 hours, the cells were washed and mixed with radioactive thymidine. The same steps were undertaken in a control sample in which only the culture medium was used, not PHA. The cells were washed and radioactivity determined.\nas §2"}, "[5]": {"details": "supplemental zinc 11 mg/day plus 7 mg in diet"}, "[6]": {"details": "supplemental zinc 28 mg/day plus 7 mg in diet"}, "[7]": {"details": "supplemental zinc 55 mg/day plus 7 mg in diet"}}, "note": "Marks after values point to notes of the source that are not given here."}
{"smiles": "[Zn]", "note": "[zinc]", "values": [{"measurement": "Interleukin-2", "setting": "[1]; [5]", "value": "17 (1.4) units/ml"}, {"measurement": "Interleukin-2", "setting": "[1]; [6]", "value": "11 (1.5) units/ml"}, {"measurement": "Interleukin-2", "setting": "[1]; [7]", "value": "9 (1.1) units/ml"}, {"measurement": "Thymulin activity (median reciprocal titer)", "setting": "[2]; [5]", "value": "114*"}, {"measurement": "Thymulin activity (median reciprocal titer)", "setting": "[2]; [6]", "value": "123*"}, {"measurement": "Thymulin activity (median reciprocal titer)", "setting": "[2]; [7]", "value": "106*"}, {"measurement": "Antibody response (median reciprocal titre)", "setting": "[3]; [5]", "value": 254}, {"measurement": "Antibody response (median reciprocal titre)", "setting": "[3]; [6]", "value": 136}, {"measurement": "Antibody response (median reciprocal titre)", "setting": "[3]; [7]", "value": 97}, {"measurement": "Lymphocyte Response to PHA (stimulation index)", "setting": "[4]; [5]", "value": "77 (8)"}, {"measurement": "Lymphocyte Response to PHA (stimulation index)", "setting": "[4]; [6]", "value": "51 (6)"}, {"measurement": "Lymphocyte Response to PHA (stimulation index)", "setting": "[4]; [7]", "value": "40 (7)"}]}
